Results from PMC11062906 (Nature, 2024).
“And” between values parts separate entries of the source, which are not always exact repeats. Equal entries are not always repeated. “Also recorded” adds a separate entry of the source.

Assays:
[1] = tested on: BmGr9 F333Y; experiment: GCaMP calcium flux assay, BmGr9 F333Y; type: cell-based, Bombyx mori
[2] = target: BmGr9 Q443D_Q445K (Bombyx mori, UniProt B3GTD7, Q443D/Q445K); experiment: GCaMP calcium flux assay, BmGr9 Q443D_Q445K; type: cell-based
[3] = target: BmGr9 R86K (Bombyx mori, UniProt B3GTD7, R86K); experiment: GCaMP calcium flux assay, BmGr9 R86K; type: cell-based
[4] = target: BmGr9 Q443E_Q445A (Bombyx mori, UniProt B3GTD7, Q443E/Q445A); experiment: GCaMP calcium flux assay, BmGr9 Q443E_Q445A; type: cell-based
[5] = target: BmGr9 Q443E_Q445R (Bombyx mori, UniProt B3GTD7, Q443E/Q445R); experiment: GCaMP calcium flux assay, BmGr9 Q443E_Q445R; type: cell-based
[6] = tested on: BmGr9 R86A; experiment: GCaMP calcium flux assay, BmGr9 R86A; type: cell-based, Bombyx mori
[7] = target: BmGr9 P331A (Bombyx mori, UniProt B3GTD7, P331A); experiment: GCaMP calcium flux assay, BmGr9 P331A; type: cell-based
[8] = tested on: BmGr9 Q443N; experiment: GCaMP calcium flux assay, BmGr9 Q443N; type: cell-based, Bombyx mori
[9] = target: BmGr9 H358A (Bombyx mori, UniProt B3GTD7, H358A); experiment: GCaMP calcium flux assay, BmGr9 H358A; type: cell-based
[10] = tested on: BmGr9 D165A; experiment: GCaMP calcium flux assay, BmGr9 D165A; type: cell-based, Bombyx mori
[11] = tested on: BmGr9 Y332Q; experiment: GCaMP calcium flux assay, BmGr9 Y332Q; type: cell-based, Bombyx mori
[12] = tested on: HEK293 cells transfected with GCaMP only; experiment: Cell-based GCaMP calcium flux assay, GCaMP-only control cells
[13] = tested on: BmGr9 F333L; experiment: GCaMP calcium flux assay, BmGr9 F333L; type: cell-based, Bombyx mori
[14] = target: BmGr9 Y190F (Bombyx mori, UniProt B3GTD7, Y190F); experiment: GCaMP calcium flux assay, BmGr9 Y190F; type: cell-based; details: 95% CI in parentheses
[15] = tested on: BmGr9 D99N; experiment: GCaMP calcium flux assay, BmGr9 D99N; type: cell-based, Bombyx mori
[16] = tested on: BmGr9 Q445R; experiment: GCaMP calcium flux assay, BmGr9 Q445R; type: cell-based, Bombyx mori
[17] = target: T1, BmGr9 (Bombyx mori, UniProt B3GTD7); experiment: Intrinsic tryptophan fluorescence of detergent-solubilized purified BmGr9; type: binding
[18] = tested on: BmGr9 Q445K; experiment: GCaMP calcium flux assay, BmGr9 Q445K; type: cell-based, Bombyx mori
[19] = tested on: BmGr9 Q443A; experiment: GCaMP calcium flux assay, BmGr9 Q443A; type: cell-based, Bombyx mori
[20] = target: BmGr9 Y332F (Bombyx mori, UniProt B3GTD7, Y332F); experiment: GCaMP calcium flux assay, BmGr9 Y332F; type: cell-based
[21] = tested on: BmGr9 F444A; experiment: GCaMP calcium flux assay, BmGr9 F444A; type: cell-based, Bombyx mori
[22] = tested on: BmGr9 H358Q; experiment: GCaMP calcium flux assay, BmGr9 H358Q; type: cell-based, Bombyx mori
[23] = tested on: BmGr9 D99A; experiment: GCaMP calcium flux assay, BmGr9 D99A; type: cell-based, Bombyx mori
[24] = target: BmGr9 Q443E (Bombyx mori, UniProt B3GTD7, Q443E); experiment: GCaMP calcium flux assay, BmGr9 Q443E; type: cell-based
[25] = tested on: BmGr9 Y190A; experiment: GCaMP calcium flux assay, BmGr9 Y190A; type: cell-based, Bombyx mori
[26] = tested on: BmGr9 W193F; experiment: GCaMP calcium flux assay, BmGr9 W193F; type: cell-based, Bombyx mori
[27] = tested on: BmGr9 W354F; experiment: GCaMP calcium flux assay, BmGr9 W354F; type: cell-based, Bombyx mori
[28] = tested on: BmGr9 F189A; experiment: GCaMP calcium flux assay, BmGr9 F189A; type: cell-based, Bombyx mori
[29] = target: BmGr9 Q443D_Q445R (Bombyx mori, UniProt B3GTD7, Q443D/Q445R); experiment: GCaMP calcium flux assay, BmGr9 Q443D_Q445R; type: cell-based; details: 95% CI in parentheses
[30] = tested on: BmGr9 F333A; experiment: GCaMP calcium flux assay, BmGr9 F333A; type: cell-based, Bombyx mori
[31] = tested on: BmGr9 I440A; experiment: GCaMP calcium flux assay, BmGr9 I440A; type: cell-based, Bombyx mori
[32] = target: T1, BmGr9; experiment: Cell-based GCaMP calcium flux assay, wild-type BmGr9
[33] = target: BmGr9 T330V (Bombyx mori, UniProt B3GTD7, T330V); experiment: GCaMP calcium flux assay, BmGr9 T330V; type: cell-based
[34] = tested on: BmGr9 D165E; experiment: GCaMP calcium flux assay, BmGr9 D165E; type: cell-based, Bombyx mori
[35] = tested on: BmGr9 D165N; experiment: GCaMP calcium flux assay, BmGr9 D165N; type: cell-based, Bombyx mori
[36] = target: BmGr9 Y332A (Bombyx mori, UniProt B3GTD7, Y332A); experiment: GCaMP calcium flux assay, BmGr9 Y332A; type: cell-based
[37] = tested on: BmGr9 Y332L; experiment: GCaMP calcium flux assay, BmGr9 Y332L; type: cell-based, Bombyx mori
[38] = tested on: BmGr9 T330A; experiment: GCaMP calcium flux assay, BmGr9 T330A; type: cell-based, Bombyx mori
[39] = target: BmGr9 Q443E_Q445K (Bombyx mori, UniProt B3GTD7, Q443E/Q445K); experiment: GCaMP calcium flux assay, BmGr9 Q443E_Q445K; type: cell-based
[40] = target: BmGr9 T330S (Bombyx mori, UniProt B3GTD7, T330S); experiment: GCaMP calcium flux assay, BmGr9 T330S; type: cell-based
[41] = target: BmGr9 F189Y (Bombyx mori, UniProt B3GTD7, F189Y); experiment: GCaMP calcium flux assay, BmGr9 F189Y; type: cell-based
[42] = target: BmGr9 Q445N (Bombyx mori, UniProt B3GTD7, Q445N); experiment: GCaMP calcium flux assay, BmGr9 Q445N; type: cell-based
[43] = target: BmGr9 Q351N (Bombyx mori, UniProt B3GTD7, Q351N); experiment: GCaMP calcium flux assay, BmGr9 Q351N; type: cell-based
[44] = target: BmGr9 Q443D (Bombyx mori, UniProt B3GTD7, Q443D); experiment: GCaMP calcium flux assay, BmGr9 Q443D; type: cell-based
[45] = target: BmGr9 Q445A (Bombyx mori, UniProt B3GTD7, Q445A); experiment: GCaMP calcium flux assay, BmGr9 Q445A; type: cell-based
[46] = target: BmGr9 Q351A (Bombyx mori, UniProt B3GTD7, Q351A); experiment: GCaMP calcium flux assay, BmGr9 Q351A; type: cell-based
[47] = target: BmGr9 Q445E (Bombyx mori, UniProt B3GTD7, Q445E); experiment: GCaMP calcium flux assay, BmGr9 Q445E; type: cell-based
[48] = tested on: BmGr9 Q351E; experiment: GCaMP calcium flux assay, BmGr9 Q351E; type: cell-based, Bombyx mori

Sequence of BmGr9 Y332F (B3GTD7 entry or part of it Y332F): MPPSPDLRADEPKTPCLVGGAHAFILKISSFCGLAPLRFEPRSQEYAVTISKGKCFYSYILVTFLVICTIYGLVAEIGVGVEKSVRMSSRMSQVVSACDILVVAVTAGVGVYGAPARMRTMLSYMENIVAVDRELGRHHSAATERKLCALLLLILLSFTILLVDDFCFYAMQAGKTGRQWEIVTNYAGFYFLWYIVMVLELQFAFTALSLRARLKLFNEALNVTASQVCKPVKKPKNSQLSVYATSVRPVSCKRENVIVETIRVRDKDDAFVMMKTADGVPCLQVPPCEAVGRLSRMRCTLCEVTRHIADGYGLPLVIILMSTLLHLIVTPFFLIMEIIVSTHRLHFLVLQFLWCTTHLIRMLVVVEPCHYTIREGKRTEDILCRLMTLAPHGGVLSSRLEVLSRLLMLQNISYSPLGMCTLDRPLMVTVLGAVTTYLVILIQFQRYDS
Sequence of BmGr9 Q443E (B3GTD7 entry or part of it Q443E): as the sequence (B3GTD7 entry or part of it Y332F) above, with F332Y, Q443E counted along it
Sequence of BmGr9 Q445A (B3GTD7 entry or part of it Q445A): as the sequence (B3GTD7 entry or part of it Y332F) above, with F332Y, Q445A counted along it
T1 sequence (B3GTD7 entry or part of it): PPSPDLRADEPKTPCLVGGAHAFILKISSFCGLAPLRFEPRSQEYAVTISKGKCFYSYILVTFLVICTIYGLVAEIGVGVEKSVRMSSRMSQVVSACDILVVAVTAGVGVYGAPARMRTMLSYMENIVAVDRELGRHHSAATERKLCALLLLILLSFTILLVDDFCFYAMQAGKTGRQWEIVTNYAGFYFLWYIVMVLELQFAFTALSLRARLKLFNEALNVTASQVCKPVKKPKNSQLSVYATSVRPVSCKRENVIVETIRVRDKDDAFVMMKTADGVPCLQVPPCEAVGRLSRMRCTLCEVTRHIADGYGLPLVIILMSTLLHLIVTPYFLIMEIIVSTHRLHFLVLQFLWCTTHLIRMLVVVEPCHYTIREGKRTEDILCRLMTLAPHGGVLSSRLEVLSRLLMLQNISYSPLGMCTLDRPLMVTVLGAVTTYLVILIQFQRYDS
Sequence of BmGr9 Q443D_Q445K (B3GTD7 entry or part of it Q443D/Q445K): as the sequence (B3GTD7 entry or part of it Y332F) above, with F332Y, Q443D, Q445K counted along it
Sequence of BmGr9 Q351A (B3GTD7 entry or part of it Q351A): as the sequence (B3GTD7 entry or part of it Y332F) above, with F332Y, Q351A counted along it
Sequence of BmGr9 F189Y (B3GTD7 entry or part of it F189Y): as the sequence (B3GTD7 entry or part of it Y332F) above, with F189Y, F332Y counted along it
Sequence of BmGr9 Q445E (B3GTD7 entry or part of it Q445E): as the sequence (B3GTD7 entry or part of it Y332F) above, with F332Y, Q445E counted along it
Sequence of BmGr9 R86K (B3GTD7 entry or part of it R86K): as the sequence (B3GTD7 entry or part of it Y332F) above, with R86K, F332Y counted along it
Sequence of BmGr9 Q445N (B3GTD7 entry or part of it Q445N): as the sequence (B3GTD7 entry or part of it Y332F) above, with F332Y, Q445N counted along it
Sequence of BmGr9 T330S (B3GTD7 entry or part of it T330S): as the sequence (B3GTD7 entry or part of it Y332F) above, with T330S, F332Y counted along it
Sequence of BmGr9 Q443E_Q445A (B3GTD7 entry or part of it Q443E/Q445A): as the sequence (B3GTD7 entry or part of it Y332F) above, with F332Y, Q443E, Q445A counted along it
Sequence of BmGr9 P331A (B3GTD7 entry or part of it P331A): as the sequence (B3GTD7 entry or part of it Y332F) above, with P331A, F332Y counted along it
Sequence of BmGr9 Q443E_Q445K (B3GTD7 entry or part of it Q443E/Q445K): as the sequence (B3GTD7 entry or part of it Y332F) above, with F332Y, Q443E, Q445K counted along it
Sequence of BmGr9 Y332A (B3GTD7 entry or part of it Y332A): as the sequence (B3GTD7 entry or part of it Y332F) above, with F332A counted along it
Sequence of BmGr9 Q351N (B3GTD7 entry or part of it Q351N): as the sequence (B3GTD7 entry or part of it Y332F) above, with F332Y, Q351N counted along it
Sequence of BmGr9 Q443E_Q445R (B3GTD7 entry or part of it Q443E/Q445R): as the sequence (B3GTD7 entry or part of it Y332F) above, with F332Y, Q443E, Q445R counted along it
Sequence of BmGr9 T330V (B3GTD7 entry or part of it T330V): as the sequence (B3GTD7 entry or part of it Y332F) above, with T330V, F332Y counted along it
Sequence of BmGr9 Q443D (B3GTD7 entry or part of it Q443D): as the sequence (B3GTD7 entry or part of it Y332F) above, with F332Y, Q443D counted along it
Sequence of BmGr9 Y190F (B3GTD7 entry or part of it Y190F): as the sequence (B3GTD7 entry or part of it Y332F) above, with Y190F, F332Y counted along it
Sequence of BmGr9 Q443D_Q445R (B3GTD7 entry or part of it Q443D/Q445R): as the sequence (B3GTD7 entry or part of it Y332F) above, with F332Y, Q443D, Q445R counted along it
Sequence of BmGr9 H358A (B3GTD7 entry or part of it H358A): as the sequence (B3GTD7 entry or part of it Y332F) above, with F332Y, H358A counted along it

Structure (SMILES): O=C(CO)[C@@H](O)[C@H](O)[C@H](O)CO [D-fructose]
- activation by D-fructose (Fmax, Hill slope, EC50 fit) [1]: no activity
- EC50 [2]: ~18 mM
- Hill Slope ([2]; Q443D_Q445K, 95% CI in parentheses): 1.18 (0.24 to 2.87)
- EC50 [3]: 10.4 mM
- Hill Slope ([3]; R86K): ~2.45
- EC50 [4]: 1.53 mM
- Hill Slope ([4]; Q443E_Q445A, 95% CI in parentheses): 1.58 (0.69 to 6.42)
- EC50 [5]: 4.07 mM
- Hill Slope ([5]; Q443E_Q445R, 95% CI in parentheses): 2.02 (1.27 to 3.33)
- activation by D-fructose (Fmax, Hill slope, EC50 fit) [6]: no activity
- EC50 [7]: 5.5 mM
- Hill Slope ([7]; P331A, 95% CI in parentheses): 1.43 (0.87 to 2.39)
- activation by D-fructose (Fmax, Hill slope, EC50 fit) [8]: no activity
- Hill Slope [9]: ~1.06
- activation by D-fructose (Fmax, Hill slope, EC50 fit) [10]: no activity
- activation by D-fructose (Fmax, Hill slope, EC50 fit) [11]: no activity
- Hill Slope [12]: ~2.37
- F max ([12]; ~ = CI not determined): ~0.20
- activation by D-fructose (Fmax, Hill slope, EC50 fit) [13]: no activity
- Hill Slope [14]: 0.98 (0.56 to 2.07)
- activation by D-fructose (Fmax, Hill slope, EC50 fit) [15]: no activity
- activation by D-fructose (Fmax, Hill slope, EC50 fit) [16]: no activity
- Kd ([17]; KD (apparent affinity, tryptophan fluorescence), purified BmGr9 in digitonin, n = 4, 95% CI in parentheses): 16 mM and 15.8 mM
- Trp fluorescence emission maximum ([17]; saturating D-fructose, maximum near 330 nm without sugar): 324 nm
- activation by D-fructose (Fmax, Hill slope, EC50 fit) [18]: no activity
- activation by D-fructose (Fmax, Hill slope, EC50 fit) [19]: no activity
- EC50 [20]: 2.6 mM
- apparent affinity relative to wild-type ([20]; Tyr332 to Phe): slightly increases the apparent affinity
- Hill Slope ([20]; Y332F): ~2.36
- activation by D-fructose (Fmax, Hill slope, EC50 fit) [21]: no activity
- F max [22]: ~0.14
- Hill Slope [22]: ~1.43
- activation by D-fructose (Fmax, Hill slope, EC50 fit) [23]: no activity
- EC50 [24]: 1.32 mM
- apparent affinity relative to wild-type ([24]; Gln443 to Glu): increased apparent affinity
- Hill Slope ([24]; Q443E): ~2.57
- Fluorescence change relative to wild-type BmGr9 ([24]; Q443E, 100 mM D-fructose): more active than wild-type BmGr9
- activation by D-fructose (Fmax, Hill slope, EC50 fit) [25]: no activity
- activation by D-fructose (Fmax, Hill slope, EC50 fit) [26]: no activity
- activation by D-fructose (Fmax, Hill slope, EC50 fit) [27]: no activity
- activation by D-fructose (Fmax, Hill slope, EC50 fit) [28]: no activity
- Hill Slope [29]: 0.31 (0.13 to 1.13)
- activation by D-fructose (Fmax, Hill slope, EC50 fit) [30]: no activity
- activation by D-fructose (Fmax, Hill slope, EC50 fit) [31]: no activity
- Activation of BmGr9 (change in fluorescence) by sweet compound ([32]; 100 mM sweet compound, HEK293 cells with BmGr9 plus GCaMP vs GCaMP only): elicited a strong response; also recorded: significantly different activity
- EC50 ([32]; EC50, WT BmGr9, 95% CI in parentheses): 8.71 mM
- Hill coefficient ([32]; Fig. 1b dose-response, n = 8, 95% CI in parentheses): 2.3 (1.3–4.6)
- Hill Slope ([32]; WT BmGr9, 95% CI in parentheses): 1.94 (1.48 to 2.58)
- EC50 ([32]; half-maximal activation concentration (EC50), Fig. 1b dose-response, HEK293 cells with BmGr9 and GCaMP6s, n = 8, 95% CI in parentheses): 9 mM and 8.2 mM
- EC50 [33]: ~98 mM
- Hill Slope ([33]; T330V): ~6.22
- F max [34]: ~0.12
- activation by D-fructose (printed in Hill Slope column) [34]: no activity
- F max [35]: ~0.10
- activation by D-fructose (printed in Hill Slope column) [35]: no activity
- EC50 [36]: 8.3 mM
- Hill Slope ([36]; Y332A, 95% CI in parentheses): 0.99 (0.37 to 2.17)
- activation by D-fructose (Fmax, Hill slope, EC50 fit) [37]: no activity
- activation by D-fructose (Fmax, Hill slope, EC50 fit) [38]: no activity
- EC50 [39]: 5.1 mM
- Hill Slope ([39]; Q443E_Q445K, 95% CI in parentheses): 2.28 (1.51 to 3.62)
- EC50 [40]: ~100 mM
- Hill Slope ([40]; T330S): ~3.03
- EC50 [41]: ~0.1 mM
- Hill Slope ([41]; F189Y, 95% CI in parentheses): 1.05 (0.44 to 2.15)
- EC50 [42]: 20.3 mM
- Hill Slope ([42]; Q445N, 95% CI in parentheses): 1.49 (0.79 to 2.76)
- EC50 [43]: ~8 mM
- Hill Slope ([43]; Q351N): ~0.71
- EC50 [44]: 10 mM
- Hill Slope ([44]; Q443D, 95% CI in parentheses): 1.52 (0.94 to 2.57)
- EC50 [45]: 2.01 mM
- Hill Slope ([45]; Q445A): ~3.78
- Fluorescence change relative to wild-type BmGr9 ([45]; Q445A, 100 mM D-fructose): more active than wild-type BmGr9
- EC50 [46]: 3.9 mM
- Hill Slope ([46]; Q351A, 95% CI in parentheses): 1.89 (0.60 to 5.26)
- EC50 [47]: 15.3 mM
- Hill Slope ([47]; Q445E, 95% CI in parentheses): 1.56 (0.68 to 3.75)
- activation by D-fructose (Fmax, Hill slope, EC50 fit) [48]: no activity
